Assay results published in patent US20130071936A1, “FRET-BASED ZINC(II) ION INDICATOR” (The Florida State University Research Foundation, Inc., priority 2011, published 2013).
Several values for one entry are separate records, joined by “and”; a condition that tells them apart may be missing. Equal entries are not always repeated. Marks after values point to notes of the source that are not given here.

Experiments:
[1] = Spectroscopic data (absorption, emission, fluorescence quantum yield) in CH3CN; assay type: physicochemical
Method: Reagents and solvents were purchased from various commercial sources and used without further purification unless otherwise stated. CH3CN (OmniSolv, EMD) were directly used in titration experiments without purification. All reactions were carried out in oven- or flame-dried glassware. Analytical thin-layer chromatography (TLC) was performed using pre-coated TLC plates with silica gel 60 F254 (EMD) or with aluminum oxide 60 F254 neutral (EMD). Flash column chromatography was performed using 40-63 μm (230-400 mesh ASTM) silica gel (EMD) or alumina (80-200 mesh, pH 9-10, EMD) as the stationary phases. Silica and alumina gel was flame-dried under vacuum to remove absorbed moisture before use. ^1H NMR spectra were recorded at 300 MHz on a Varian Mercury spectrometer. ^13C NMR spectra were recorded at 125 MHz, on a Bruker Avance spectrometer. All chemical shifts were reported in δ units relative to tetramethylsilane. High resolution mass spectra were obtained at the Mass Spectrometry Laboratory at Florida State University. ESI spectra were obtained on a JEOL AccuTOF spectrometer. Spectrophotometric and fluorometric titrations were conducted on a Varian Cary 100 Bio UV-Visible Spectrophotometer and a Varian Cary Eclipse Fluorescence Spectrophotometer, respectively, with a 1-cm standard quartz cell. The fluorescence quantum yield was determined by comparison of the integrated area of corrected emission spectrum with reference of N,N′-di-n-octyl-2,6-di-n-octylamino-1,4,5,8-naphthalenetetracarboxylic acid diimide (φf=0.53 in CH2Cl2) as the reference by the literature method. See Thalacker, C.; Röger, C.; Würthner, F. J. Org.

[2] = Fluorescence titration with ZnCl2 in aqueous/organic mixed solvent (1:9 MOPS buffer pH 7.2/CH3CN); assay type: binding; details: λex 400 nm
Method: FIG. 9 is a graph depicting emission spectra for the titration of zinc(II) ion indicator (4) (2.5 μM) with ZnCl2 (0-22 μM) in water-CH3CN (1:9) mixture (MOPES buffer, 10 mM, pH=7.2, λex=400 nm).
The titration experiments using zinc(II) ion indicator (4) were also carried out in an aqueous/organic mixed solvent (1:9 MOPS buffer (pH 7.2)/CH3CN). […] (FIG. 9). Comparing to the observations in CH3CN, the fluorescence is rather dim. The loss of fluorescence can be explained by the hydrogen bonding interaction between the protic solvent and the carbonyl groups on NDI, which provides a non-radiative deactivation pathway. See F. Würthner, S. Ahmed, C. Thalacker and T. Debaerdemaeker, Chem. Eur. J., 2002, 8, 4742. […] By extension, the fluorescence of zinc(II) ion indicators (4) and (5) would not be affected by the fluctuations of pH within the physiological range.

[3] = test system: mitochondria of HeLa (S3) cells transfected with mCerulean3 TOMM-20; assay: Colocalization by confocal fluorescence microscopy with mCerulean3 TOMM-20; assay type: cell-based
Method: FIGS. 13A through 13F are confocal fluorescence images of living HeLa (S3) cells transfected with mCerulean3 TOMM-20 that were incubated with zinc(II) ion indicator (5) (1.8 μM, A-C) and zinc(II) ion indicator (4) (6.0 μM, D-F) for 30 min. FIGS. 13A (zinc(II) ion indicator (5)) and 13D (zinc(II) ion indicator (4)) depict the green channel, λex 405 nm, λem 425-475 nm. FIGS. 13B (zinc(II) ion indicator (5)) and 13E (zinc(II) ion indicator (4)) depict the red channel, λex 543 nm, λem 580-680 nm. FIGS. 13C (zinc(II) ion indicator (5)) and 13F (zinc(II) ion indicator (4)) depict the merged image. Scale bar: 10 μm.
FIGS. 14A through 14F are confocal fluorescence images of live HeLa (S3) cells transfected with mCer3 TOMM20 that were incubated with FRET acceptor compound (3) (9.0 μM, A-C) and FRET acceptor compound (2) (52 μM, D-F) for 30 min. FIGS. 14A (FRET acceptor compound (3)) and 14D (FRET acceptor compound (2)) depict the green channel, λex 405 nm, λem 425-475 nm. FIGS. 14B (FRET acceptor compound (3)) and […] (FRET acceptor compound (2)) depict the red channel, λex 543 nm, λem 580-680 nm. FIGS. 14C (FRET acceptor compound (3)) and […] (FRET acceptor compound (2)) depict the merged image. Scale bar: 10 μm.
The colocalization properties of red-emitting compounds (2-5) were studied using HeLa (S3) cells transfected with mCerulean3 TOMM-20, a cyan fluorescent protein (CFP) fused with a mitochondrial targeting sequence whose emission is shown in the green channel. See FIG. 13A for emission spectrum from cells incubated with TPP-containing zinc(II) ion indicator (5), and see FIG. 13D for emission spectrum from cells incubated with zinc(II) ion indicator (4). […] The overall intracellular fluorescence intensity from zinc(II) ion indicator (4) is low, which is consistent with the observed weak fluorescence of the NDI fluorophore in aqueous solutions.
The localization properties of (2-5) were determined via costaining experiments using mCerulean3 TOMM-20, a mitochondrial-specific fusion of the cyan fluorescent protein (CFP) mCerulean3. mCerulean3 is a bright monomeric FP with an emission maximum of 475 nm. HeLa S3 cells were seeded onto Bioptechs Delta-T dishes 48 h prior to experimentation, then transfected about 24 h prior to loading the indicator using an Effectene Transfection Reagent Kit (Qiagen) and 1 μg of DNA. A 1:1 mixture of Dulbecco's modified Eagle's medium and Ham's F-12 (Invitrogen) supplemented with 12.5% fetal bovine serum was used as the culture medium. On the day of experimentation cells were rinsed twice with media and incubated with indicator 5 (1.8 μM) for 30 min. Prior to imaging cells were again rinsed twice with media, then provided with 1 mL of fresh media.
All cells were imaged using an Olympus Fluoview FV1000 confocal laser scanning microscope with an Olympus PLAPO 60× oil-immersion objective (NA=1.4). During experimentation cells were maintained at 37° C. and 5.0% CO2 using a Bioptechs Delta T4 Culture Dish Controller. Individual cells were imaged sequentially in two channels, using a 543 nm Helium-Neon laser line to excite the indicator and a 405 nm diode laser line to excite the FP. Cells were selected by the quality of FP expression, as the indicators tended to load homogenously into the cells. All data was collected using FluoView Software (Olympus). Laser power and detection settings were optimized for each image to fill LUTs. A pinhole size of 200 μm was used for each image. […]

COCCCNc1cc2c3c(c(NCCOc4ccc(/C=C/c5ccc(-c6ccc(COCCOCCOC)cn6)nc5)cc4)cc4c3c1C(=O)N(CCCOC)C4=O)C(=O)N(CCCOC)C2=O [Compound (4)]
λabs (A band) ([1]; complexes: Zn(ClO4)2 10 equiv.): 600 nm and 600 (A) nm | λabs (D band) ([1]; complexes: Zn(ClO4)2 10 equiv.): 346 nm and 346 (D) nm | λem ([1]; complexes: Zn(ClO4)2 10 equiv.): 633 nm | ∈/10^3 (A band) ([1]; complexes: Zn(ClO4)2 10 equiv.): 22 10^3 M^-1 cm^-1 | ∈/10^3 (D band) ([1]; complexes: Zn(ClO4)2 10 equiv.): 76 10^3 M^-1 cm^-1 | φf ([1]; λex = 565 nm): 0.41^c | fluorescence enhancement on increasing [Zn^2+] [2]: 3 fold | intracellular appearance ([3]; 6.0 μM, 30 min): forms particulates intracellularly | colocalization with mitochondrial CFP (mCerulean3 TOMM-20) ([3]; 30 min incubation, (5) 1.8 μM, (4) 6.0 μM, (3) 9.0 μM, (2) 52 μM): poor colocalization with the CFP | overall intracellular fluorescence intensity ([3]; red channel λex 543 nm, λem 580-680 nm): low
